Measurements from patent publication USRE38551E1, “Anticonvulsant enantiomeric amino acid derivatives” (priority 1996, dated 2004).

Experiments:
[1] = rotorod neurologic toxicity test, mice (ip); format: in vivo; details: male, ip; for TD50: Carthworth Farms No. 1, mouse, in vivo, mice, rotorod test, at time of peak effect, read-out: tox, TD50
Description: (§1) Compounds were screened for anticonvulsant activity in both male albino Carthworth Farms No. 1 mice (ip route) and male albino Sprague Dawley rats [oral (po) route]. Activity was established using the electrical (maximal electroshock or MES) test. In the MES test, a drop of electrolyte solution with anesthetic (0.5% butacaine hemisulfate in 0.9% sodium chloride) was used in the eyes of the animals prior to positioning the corneal electrodes and delivery of current. […] Protection endpoints were defined as the abolition of the hind limb tonic extensor component of the induced seizure. In mice, effects of compounds on forced spontaneous motor activity were determined using the rotorod test. […] Normally under these conditions, mice maintain their balance almost indefinitely. In rats, motor impairment is assessed by observing for overt evidence of ataxia, abnormal gait and stance, and/or loss of placing response and muscle tone. In the mouse identification screening study all compounds were given at three dose levels (30, 100, 300 mg/kg) and two time periods (0.5 hours, 4 hours). Typically, in the MES seizures test one animal was tested at 30 mg/kg and 300 mg/kg, and three animals at 100 mg/kg. In the rotored toxicity test four animals were tested at 30 mg/kg, and 300 mg/kg, and eight animals at 100 mg/kg.
(§2) The quantitative determination of the median effective (ED50) and toxic doses (TD50) was conducted at previously calculated times of peak effect. Groups of at least eight animals were tested using different doses of test compound until at least two points wee determined between 100 and 0% protection and minimal motor impairment. The dose of candidate substance required to produce the defined end-point in 50% of the animals in each test and the 95% confidence interval was calculated.

[2] = motor impairment (ataxia, gait, stance) observation, rats (po); format: in vivo; details: male, Sprague Dawley, in vivo, rat; for TD50: po, at time of peak effect, read-out: tox, TD50
Description: Compounds were screened for anticonvulsant activity in both male albino Carthworth Farms No. 1 mice (ip route) and male albino Sprague Dawley rats [oral (po) route]. Activity was established using the electrical (maximal electroshock or MES) test. In the MES test, a drop of electrolyte solution with anesthetic (0.5% butacaine hemisulfate in 0.9% sodium chloride) was used in the eyes of the animals prior to positioning the corneal electrodes and delivery of current. A 60 cycle alternating current was administered for 0.2 sec. in both species, 50 mA in mice and 150 mA in rats. Protection endpoints were defined as the abolition of the hind limb tonic extensor component of the induced seizure. In mice, effects of compounds on forced spontaneous motor activity were determined using the rotorod test. […] Normally under these conditions, mice maintain their balance almost indefinitely. In rats, motor impairment is assessed by observing for overt evidence of ataxia, abnormal gait and stance, and/or loss of placing response and muscle tone. In the mouse identification screening study all compounds were given at three dose levels (30, 100, 300 mg/kg) and two time periods (0.5 hours, 4 hours). Typically, in the MES seizures test one animal was tested at 30 mg/kg and 300 mg/kg, and three animals at 100 mg/kg. In the rotored toxicity test four animals were tested at 30 mg/kg, and 300 mg/kg, and eight animals at 100 mg/kg.
as §2

[3] = system: hexobarbital sleep time; assay: hexobarbital sleep time test; format: in vivo; details: rats, 5 daily doses of 48 mg/kg
Method: All rats subjected to the 5-day tolerance studies were maintained in their home cage for 24 hours and then subjected to the hexobarbital sleep time test (day 6). Each rat in each of the 3 groups was given 100 mg/kg of hexobarbital (i.p.) and the sleep time measured to the nearest minute. The mean sleep time and S.E. for each group were calculated.

[4] = system: maximal electroshock (MES) induced seizure; assay: maximal electroshock (MES) seizure test, mice (ip); format: in vivo; details: for ED50: Mus musculus; for Ratio to MES: i.p., Neurotox/MES (Table 6)
Description: as §1
(§3) The quantitative determination of the median effective (ED50) and toxic doses (TD50) was conducted at previously calculated times of peak effect. Groups of at least eight animals were tested using different doses of test compound until at least two points wee determined between 100 and 0% protection and minimal motor impairment.

[5] = system: liver microsomal system; assay: 7-day liver microsomal studies; format: in vivo, rats
Method: Two of the three groups of animals subjected to the hexobarbital sleep time test (chronically treated and vehicle control groups) were continued on their respective original treatment regimen for two days (days 6 and 7) and 24 hours later (day 8) subjected to liver microsomal studies. The rats were decapitated and the livers perfused with 0.9% sodium chloride solution. The livers were removed, weighed, and homogenized in 0.25M sucrose. Microsomes were prepared and their drug metabolizing capabilities (microsomal protein yield; cytochrome P-450 concentration; p-nitroanisole O-demethylase and NADPH cytochrome c reductase activities; norbenzphetamine MI complex formation; and glucuronyl transferase, erythromycin demethylase, and ethylmorphine demethylase activities) measured (Arch. Biochem. Biophys. 143: 318-329, 1971).

[6] = system: maximal electroshock (MES) induced seizure; assay: 5-day chronic treatment tolerance study (MES test); format: in vivo; details: rats, 5 daily doses of 48 mg/kg
Method: Compound C, i.e., N-acetyl-D, L-phenylglycine N-benzylamide was subjected to 5-day chronic treatment on anticonvulsant activity (maximal electroshock). 3 groups of 8 animals each were treated as follows. One group was given the MES ED50 of the test drug for 5 days; the second group was given the requisite volume of the vehicle (0.04 ml/10 g body wt.) for 4 days and a single dose (MES ED50) of the test drug on day 5; and the third group was given the requisite volume of the vehicle daily for 5 days. At the time of peak effect of the candidate substance on day 5, all groups were subjected to the MES test and the number of animals protected recorded. Seizure components of the unprotected animals were timed to the nearest 10th of a second and the extensor/flexor (E/F) ratio, S.E., and p value determined. Since extensor duration decreases and flexor duration increases as a maximal seizure is attenuated, the E/F ratio provides a measure of seizure severity.

[7] = system: maximal electroshock (MES) induced seizure; assay: maximal electroshock (MES) seizure test, rats (po); format: in vivo; details: for Ratio to MES: oral, Neurotox/MES (Table 6)
Description: as §1, §3

[8] = system: motor impairment (rotorod test); assay: rotorod neurologic toxicity test, mice (ip); format: in vivo; details: for tox, TD50: mice, ip, rotorod test, at time of peak effect
Description: as §1, §2

[9] = system: liver; assay: liver toxicity evaluation of D-furyl derivative, oral gavage to rats; format: in vivo
Method: Compound C, i.e., D-(−)-α-acetamido-N-benzyl-2-furanacetylamide was evaluated for liver toxicity using the procedures described hereinabove. More specifically, various dosages such as 25 mg/kg, 100 mg/kg, 500 mg/kg of the drug was administered by oral gavage to rats for a set period of time. The rats were housed separately. The rats were periodically viewed for mortality and moribundity. At the termination of the study, the surviving rats were anesthetized, and exsanguinated under anesthesia.

[10] = liver microsomes, rats, p.o., 48 mg/kg, Treated 7 Days
[11] = rats, p.o., 48 mg/kg, Treated 7 Days
[12] = rat, po, at time of peak effect, read-out: MES, ED50

## CC(=O)NC(C(=O)NCc1ccccc1)c1ccccc1 (racemic) [compound 13, N-Acetyl-D,L-phenylglycine-N-benzylamide]
[1]; Carthworth Farms No. 1, in vivo, mouse, i.p., rotorod test at peak effect (Table 6), read-out: MOUSE ED50 Neurotox
  ED50: 96.9 mg/kg
[1]
  TD50: 96.9 mg/kg
[2]; oral (Table 6), read-out: RAT ED50 Neurotox
  ED50: > 1000 mg/kg
[2]
  TD50: > 1000 mg/kg
[3]
  effect of chronic treatment on hexobarbital sleep time: does not affect
[4]; ip, read-out: MES, ED50
  ED50: 20.3 mg/kg
[4]; ip, read-out: MOUSE anticonvulsant dose ED50 MES
  ED50: 20.3 mg/kg
[4]; mice, ip
  PI protective index (TD50/MES ED50): 4.77
[4]; mouse
  Ratio to MES: 4.8
[5]; [10]
  Cytochrome P-450: 0.71 ± 0.06 nmol/mg
  Erythromycin demethylase: 0.64 ± 0.07 nmol/mg/min
  Ethylmorphine demethylase: 6.75 ± 0.37 nmol/mg/min
  Glucoronyl Transferase: 9.77 ± 0.23 nmol/mg/min
  NADPH Cytochrome c reductase: 160.3 ± 5.2 nmol/mg/min
  Norbenzphetamine MI Complex: 0.023 ± 0.003 nmol/mg/min
  Total Protein: 31.7 ± 1.4 mg
  p-nitroanisole O-demethylase: 0.82 ± 0.12 nmol/mg/min
[5]; rat, oral, 48 mg/kg/day × 7 days
  Liver Pathology Report: liver enzyme induction
[5]; rat, oral, 48 mg/kg/day × 7 days vs oral MES ED50
  Safety Ratio daily dose; MES: −1
[5]; rats, chronic administration, 48 mg/kg, 7 days
  induction of liver microsomal enzyme systems: induces some liver microsomal enzyme systems
[5]; [11]
  Body Weight: 146.3 ± 3.8 g
  Liver Weight: 8.54 ± 0.26 g
[6]
  effect of chronic treatment on anticonvulsant activity: does not affect
[7]; Rattus norvegicus, po, read-out: RAT anticonvulsant ED50 MES
  ED50: 48.3 mg/kg
[7]; Rattus norvegicus, po, Rats, p.o., TPE 4 hrs (Table 4 head), read-out: ED50
  ED50: 48 mg/kg
[7]; rat
  Ratio to MES: 20.7
[7]; rat, po
  PI protective index (TD50/MES ED50): >20.7
[7]; [12]
  ED50: 48.3 mg/kg

## COC[C@@H](NC(C)=O)C(=O)NCc1ccc(F)cc1 [Ex. 4, (R)-N-(4-Fluorobenzyl)2-Acetamido-3-Methoxypropanamide]
[8]
  tox, TD50: 27.8 [0.25] mg/kg
[2]
  TD50: 125 to 250 mg/kg
other
  melting point: 144 to 145 °C
[4]; ip, read-out: MES, ED50
  ED50: 4.2 mg/kg
[4]; mice, ip
  PI protective index (TD50/MES ED50): 6.6
[7]; [12]
  ED50: 2.6 mg/kg

## CC(=O)N[C@@H](C(=O)NCc1ccccc1)c1ccco1 [compound 6, (D)-(−)α-Acetamido-N-benzyl-2-furanacetamide]
[8]
  tox, TD50: 23.8 mg/kg
[8]; mouse, i.p., rotorod test at peak effect (Table 6)
  MOUSE ED50 Neurotox: 23.8 mg/kg
[4]; mice, ip
  PI protective index (TD50/MES ED50): >.2
[4]; mice, ip, at time of peak effect (hours in brackets)
  MES, ED50: 3.3 mg/kg
[4]; mouse, i.p. (Table 6)
  MOUSE anticonvulsant dose ED50 MES: 3.3 mg/kg
[4]; mouse
  Ratio to MES: 7.2
[7]; rat, oral (Table 6)
  RAT anticonvulsant ED50 MES: 1.97 mg/kg
[7]; rat
  Ratio to MES: 175
[9]; rat, oral, 25 mg/kg/day × 30 days vs oral MES ED50
  Safety Ratio daily dose; MES: 12.7
[9]; rats
  safety ratio for histologic signs of liver toxicity (hepatocellular necrosis): 12.7
[9]; rats, 100 and 25 mg/kg, treated for 13 weeks
  hepatocellular necrosis: hepatocellular necrosis was evident

## CC(=O)NC(CO)C(=O)NCc1ccccc1 (stereo not drawn) [compound 8, N-Benzyl 2-Acetamidohydracrylamide]
[1]
  TD50: > 300 mg/kg
other
  melting point: 201 to 203 °C
[4]; ip, read-out: MES, ED50
  ED50: 100 to 300 mg/kg
